From patent US9216999B2, “Substituted pyrrolo[2,3-h][1,6]naphthyridines and compositions thereof as JAK inhibitors” (priority 2011, dated 2015)

What was measured:
[1] = clinical tests; cited from earlier work
[2] = murine asthma model; cited from earlier work
[3] = clinical tests; cited from earlier work; remark: listed apart in the source
[4] = monkey model of kidney transplantation; cited from earlier work
Tyk2 = Tyk2 (Homo sapiens (Human), UniProt P29597); experiment: Tyk2 enzyme assay (Assay Example^b 1)
Tyk2, sequence (P29597 whole entry): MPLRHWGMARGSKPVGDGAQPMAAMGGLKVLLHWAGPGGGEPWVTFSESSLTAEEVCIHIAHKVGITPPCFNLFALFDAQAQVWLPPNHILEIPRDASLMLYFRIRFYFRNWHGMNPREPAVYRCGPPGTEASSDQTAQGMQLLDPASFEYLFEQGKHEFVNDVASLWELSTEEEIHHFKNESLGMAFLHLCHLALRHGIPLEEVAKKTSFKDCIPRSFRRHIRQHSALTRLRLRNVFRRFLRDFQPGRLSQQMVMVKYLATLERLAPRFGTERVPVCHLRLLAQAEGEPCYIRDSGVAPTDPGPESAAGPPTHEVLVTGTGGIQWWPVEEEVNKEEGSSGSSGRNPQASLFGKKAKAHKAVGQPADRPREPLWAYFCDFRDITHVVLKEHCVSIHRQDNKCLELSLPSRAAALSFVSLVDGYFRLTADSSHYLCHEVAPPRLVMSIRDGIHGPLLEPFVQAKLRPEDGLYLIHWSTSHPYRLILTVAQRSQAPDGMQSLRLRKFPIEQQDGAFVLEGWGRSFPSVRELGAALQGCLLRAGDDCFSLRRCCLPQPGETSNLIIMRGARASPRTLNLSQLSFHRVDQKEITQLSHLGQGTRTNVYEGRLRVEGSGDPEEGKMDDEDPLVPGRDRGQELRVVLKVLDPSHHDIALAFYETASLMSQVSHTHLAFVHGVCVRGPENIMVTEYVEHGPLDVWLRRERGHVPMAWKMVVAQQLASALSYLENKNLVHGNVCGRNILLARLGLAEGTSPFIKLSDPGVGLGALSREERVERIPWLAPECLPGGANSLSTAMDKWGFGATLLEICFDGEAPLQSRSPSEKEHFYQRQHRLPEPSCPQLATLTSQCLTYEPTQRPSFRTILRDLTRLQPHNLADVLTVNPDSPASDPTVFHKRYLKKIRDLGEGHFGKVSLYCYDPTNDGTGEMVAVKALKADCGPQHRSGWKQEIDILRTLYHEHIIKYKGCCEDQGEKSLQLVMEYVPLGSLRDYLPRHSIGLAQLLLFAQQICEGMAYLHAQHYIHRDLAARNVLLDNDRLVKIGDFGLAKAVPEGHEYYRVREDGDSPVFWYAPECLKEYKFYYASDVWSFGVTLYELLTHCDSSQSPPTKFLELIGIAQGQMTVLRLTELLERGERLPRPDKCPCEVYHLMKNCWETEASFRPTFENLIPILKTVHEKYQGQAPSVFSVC

JAK2 = JAK2 (Homo sapiens (Human), UniProt O60674); experiment: JAK2 enzyme assay (Assay Example^b 1)
JAK3 = JAK3 (Homo sapiens (Human), UniProt P52333); experiment: JAK3 enzyme assay (Assay Example^b 1)
JAK3, sequence (P52333 whole entry): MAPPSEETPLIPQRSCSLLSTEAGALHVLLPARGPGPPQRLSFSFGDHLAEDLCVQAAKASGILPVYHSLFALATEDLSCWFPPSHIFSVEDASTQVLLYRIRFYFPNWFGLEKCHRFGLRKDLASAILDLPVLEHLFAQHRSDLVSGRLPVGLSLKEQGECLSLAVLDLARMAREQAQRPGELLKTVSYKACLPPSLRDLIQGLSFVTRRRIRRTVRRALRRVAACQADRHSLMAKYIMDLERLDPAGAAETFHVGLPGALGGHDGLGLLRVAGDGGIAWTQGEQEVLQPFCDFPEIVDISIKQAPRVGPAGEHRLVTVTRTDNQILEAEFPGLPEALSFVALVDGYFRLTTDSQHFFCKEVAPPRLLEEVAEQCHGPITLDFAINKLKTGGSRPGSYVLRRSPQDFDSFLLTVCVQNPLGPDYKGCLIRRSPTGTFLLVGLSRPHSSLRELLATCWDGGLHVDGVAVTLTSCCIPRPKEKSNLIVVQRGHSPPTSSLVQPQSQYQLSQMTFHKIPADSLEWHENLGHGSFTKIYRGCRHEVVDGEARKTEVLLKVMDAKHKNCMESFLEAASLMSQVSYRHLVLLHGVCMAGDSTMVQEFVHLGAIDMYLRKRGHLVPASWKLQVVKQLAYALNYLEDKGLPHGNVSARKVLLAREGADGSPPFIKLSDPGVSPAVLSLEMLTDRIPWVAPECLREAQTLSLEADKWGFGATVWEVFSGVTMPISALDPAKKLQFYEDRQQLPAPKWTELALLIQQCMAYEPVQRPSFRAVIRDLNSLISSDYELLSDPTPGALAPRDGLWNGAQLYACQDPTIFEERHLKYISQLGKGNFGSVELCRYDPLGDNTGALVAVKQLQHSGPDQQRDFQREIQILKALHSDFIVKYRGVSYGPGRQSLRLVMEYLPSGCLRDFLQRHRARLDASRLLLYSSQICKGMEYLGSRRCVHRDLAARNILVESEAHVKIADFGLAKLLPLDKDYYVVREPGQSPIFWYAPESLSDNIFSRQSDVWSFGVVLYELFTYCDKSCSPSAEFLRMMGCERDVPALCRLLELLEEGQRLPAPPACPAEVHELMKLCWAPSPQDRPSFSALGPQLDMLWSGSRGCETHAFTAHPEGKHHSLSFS

JAK1 = JAK1 (Homo sapiens (Human), UniProt P23458); experiment: JAK1 enzyme assay (Assay Example^b 1)
[5] = IC50 (μM) TYK2, Table^b 80, ATP 100 μM
[6] = IC50 (μM) JAK2, Table^b 80, ATP 100 μM
[7] = IC50 (μM) JAK3, Table^b 80, ATP 100 μM
[8] = IC50 (μM) JAK1, Table^b 80, ATP 100 μM

Row | SMILES | IC50 (Tyk2; [5]) | IC50 (JAK2; [6]) | IC50 (JAK3; [7]) | IC50 (JAK1; [8]) | IC50 (Tyk2; IC50 (μM) TYK2, ATP 100 μM) | IC50 (JAK2; IC50 (μM) JAK2, ATP 100 μM) | IC50 (JAK3; IC50 (μM) JAK3, ATP 100 μM) | IC50 (JAK1; IC50 (μM) JAK1, ATP 100 μM) | also measured
1 | C[C@@H]1CCN(C(=O)CC#N)C[C@@H]1N(C)c1ncnc2[nH]ccc12 [CP-690,550] |  |  |  |  |  |  |  |  | pathology of rheumatoid arthritis [1]: improved the pathology; airway inflammation [2]: suppressed; pathology of psoriasis [3]: improved the pathology; rejection [4]: suppressed rejection
2 | O=C1NCc2cnc3[nH]ccc3c2N1C1CCN(S(=O)(=O)Cc2ccccc2)CC1 [compound 60] | > 1 µM | 0.48 µM | > 1 µM | 0.35 µM |  |  |  |  | 
3 | O=C1NCc2cnc3[nH]ccc3c2N1C1CCNCC1 [compound 68] | > 1 µM | 2.4 µM | 9.1 µM | 0.5 µM |  |  |  |  | 
4 | O=C(c1ccc(Cl)s1)N1CCC(n2ccc(=O)c3cnc4[nH]ccc4c32)CC1 [compound 87] | > 1 µM | 0.38 µM | > 1 µM | 0.025 µM |  |  |  |  | 
5 | O=c1[nH]c(=O)n(C2CCN(Cc3ccc(Br)s3)CC2)c2c1cnc1[nH]ccc12 [compound 89] |  |  |  |  | > 1 µM | > 1 µM | > 1 µM | 0.011 µM | 
6 | O=c1ccn(C2C3CC4CC2CC(O)(C4)C3)c2c1cnc1[nH]ccc12 (stereo not shown) [compound 106] |  |  |  |  | 0.38 µM | 0.25 µM | 0.61 µM | 0.047 µM | 
7 | O=c1ccn(C2C3CC4CC2CC(O)(C4)C3)c2c1cnc1[nH]ccc12 (stereo not shown) [compound 107] |  |  |  |  | > 1 µM | 0.6 µM | 0.41 µM | 0.31 µM | 
8 | O=c1[nH]c(=O)n(C2CCN(CCN3CCOCC3)CC2)c2c1cnc1[nH]ccc12 [compound 108] |  |  |  |  | > 1 µM | > 1 µM | > 1 µM | 0.37 µM | 
9 | CC(C)(C)OC(=O)N1CCC(NCCN2CCC(n3c(=O)[nH]c(=O)c4cnc5[nH]ccc5c43)CC2)CC1 [compound 109] |  |  |  |  | > 1 µM | > 1 µM | > 1 µM | 0.92 µM | 
10 | O=c1[nH]c(=O)n(C2CCN(CCNC3CCNCC3)CC2)c2c1cnc1[nH]ccc12 [compound 111] |  |  |  |  | > 1 µM | > 1 µM | > 1 µM | 0.44 µM | 
